Laboratory results from patent publication US20210070748A1, “INHIBITORS OF BRUTONS TYROSINE KINASE” (Pharmacyclics LLC, priority 2015, published 2021).
Where two headings read alike, the source gives them in different places.

Assays:
Format in all cases: biochemical
LCK = LCK (Homo sapiens, UniProt P06239); assay: Inhibition of a panel of kinases, in vitro HotSpot kinase assay: LCK; settings: read-out: IC50 LCK
ITK = target: T1, ITK (Homo sapiens, UniProt Q08881); assay: Inhibition of a panel of kinases, in vitro HotSpot kinase assay: ITK
T1 sequence (Q08881 1-620): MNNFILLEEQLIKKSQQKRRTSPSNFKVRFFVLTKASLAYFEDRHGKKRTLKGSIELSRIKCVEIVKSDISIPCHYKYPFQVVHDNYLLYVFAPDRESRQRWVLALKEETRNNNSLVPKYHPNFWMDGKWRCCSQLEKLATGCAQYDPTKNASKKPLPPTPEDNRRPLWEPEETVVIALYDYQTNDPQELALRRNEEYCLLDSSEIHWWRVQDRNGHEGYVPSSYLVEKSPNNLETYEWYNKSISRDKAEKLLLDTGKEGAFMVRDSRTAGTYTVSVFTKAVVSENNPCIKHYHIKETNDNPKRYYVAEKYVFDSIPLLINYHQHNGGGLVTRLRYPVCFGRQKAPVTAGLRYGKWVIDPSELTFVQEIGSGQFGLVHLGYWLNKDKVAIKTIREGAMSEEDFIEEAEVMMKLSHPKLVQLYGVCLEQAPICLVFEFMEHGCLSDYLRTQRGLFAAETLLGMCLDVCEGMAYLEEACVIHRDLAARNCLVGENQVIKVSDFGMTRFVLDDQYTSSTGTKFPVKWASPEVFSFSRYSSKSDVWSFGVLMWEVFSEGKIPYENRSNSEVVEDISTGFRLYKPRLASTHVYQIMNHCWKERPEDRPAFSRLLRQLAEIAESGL
Experimental: (§1) The degree of inhibition of a panel of kinases is determined using the in vitro HotSpot kinase assay (purified enzymes, ^33P-ATP, an appropriate substrate and 1 μM ATP).

EGFR = EGFR (Homo sapiens, UniProt P00533); assay: Inhibition of a panel of kinases, in vitro HotSpot kinase assay: EGFR
EGFR, sequence (P00533 25-1210): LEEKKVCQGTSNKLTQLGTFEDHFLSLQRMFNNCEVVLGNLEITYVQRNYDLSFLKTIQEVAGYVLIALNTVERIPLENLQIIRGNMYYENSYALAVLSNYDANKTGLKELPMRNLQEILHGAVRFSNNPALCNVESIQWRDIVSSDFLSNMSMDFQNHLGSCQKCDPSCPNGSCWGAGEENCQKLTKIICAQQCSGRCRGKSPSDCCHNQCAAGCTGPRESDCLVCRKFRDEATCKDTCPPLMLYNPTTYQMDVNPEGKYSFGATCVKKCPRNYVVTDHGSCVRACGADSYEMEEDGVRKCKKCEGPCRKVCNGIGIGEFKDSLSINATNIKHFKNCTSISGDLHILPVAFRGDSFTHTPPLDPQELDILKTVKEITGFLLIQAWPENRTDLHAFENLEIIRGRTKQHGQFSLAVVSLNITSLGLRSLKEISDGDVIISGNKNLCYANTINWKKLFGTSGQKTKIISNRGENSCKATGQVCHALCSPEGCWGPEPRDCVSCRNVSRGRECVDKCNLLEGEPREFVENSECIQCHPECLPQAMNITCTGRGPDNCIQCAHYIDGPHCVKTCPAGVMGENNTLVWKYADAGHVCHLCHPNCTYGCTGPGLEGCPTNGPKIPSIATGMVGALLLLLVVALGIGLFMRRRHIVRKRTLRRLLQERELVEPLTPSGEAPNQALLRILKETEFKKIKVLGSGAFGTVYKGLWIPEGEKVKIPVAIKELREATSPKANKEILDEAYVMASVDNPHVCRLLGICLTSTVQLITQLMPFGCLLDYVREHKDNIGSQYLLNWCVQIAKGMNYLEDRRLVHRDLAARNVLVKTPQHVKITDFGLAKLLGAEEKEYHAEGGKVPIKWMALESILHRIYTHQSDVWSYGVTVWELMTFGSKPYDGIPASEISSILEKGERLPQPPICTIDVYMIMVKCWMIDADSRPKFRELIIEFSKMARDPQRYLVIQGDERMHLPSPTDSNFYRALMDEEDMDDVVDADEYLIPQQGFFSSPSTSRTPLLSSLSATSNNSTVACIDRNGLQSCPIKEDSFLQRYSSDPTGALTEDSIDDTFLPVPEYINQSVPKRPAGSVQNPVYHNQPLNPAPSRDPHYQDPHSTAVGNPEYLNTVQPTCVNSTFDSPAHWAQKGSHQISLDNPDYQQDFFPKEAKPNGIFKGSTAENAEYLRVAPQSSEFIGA
Experimental: as §1

TEC = target: T2, TEC (Homo sapiens, UniProt P42680); assay: Inhibition of a panel of kinases, in vitro HotSpot kinase assay: TEC
T2 sequence (P42680 1-631): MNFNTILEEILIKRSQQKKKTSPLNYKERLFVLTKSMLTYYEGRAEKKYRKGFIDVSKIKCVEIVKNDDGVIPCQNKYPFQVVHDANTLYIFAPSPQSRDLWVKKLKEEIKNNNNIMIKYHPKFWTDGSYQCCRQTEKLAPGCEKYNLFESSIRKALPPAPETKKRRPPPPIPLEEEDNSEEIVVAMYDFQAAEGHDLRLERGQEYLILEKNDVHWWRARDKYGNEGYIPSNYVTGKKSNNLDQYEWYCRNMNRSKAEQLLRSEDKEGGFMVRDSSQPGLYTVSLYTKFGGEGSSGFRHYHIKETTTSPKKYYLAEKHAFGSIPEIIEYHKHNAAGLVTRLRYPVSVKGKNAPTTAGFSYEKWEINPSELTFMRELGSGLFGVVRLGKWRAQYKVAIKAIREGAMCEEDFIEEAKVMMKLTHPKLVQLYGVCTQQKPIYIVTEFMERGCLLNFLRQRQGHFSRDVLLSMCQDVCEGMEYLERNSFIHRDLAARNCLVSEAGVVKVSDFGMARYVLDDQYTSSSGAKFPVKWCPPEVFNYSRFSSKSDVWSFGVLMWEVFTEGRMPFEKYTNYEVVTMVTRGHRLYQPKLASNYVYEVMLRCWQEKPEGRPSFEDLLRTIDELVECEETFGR
Experimental: as §1

[1] = D-compounds panel data, 1 μM ATP

LCK, sequence (P06239 whole entry): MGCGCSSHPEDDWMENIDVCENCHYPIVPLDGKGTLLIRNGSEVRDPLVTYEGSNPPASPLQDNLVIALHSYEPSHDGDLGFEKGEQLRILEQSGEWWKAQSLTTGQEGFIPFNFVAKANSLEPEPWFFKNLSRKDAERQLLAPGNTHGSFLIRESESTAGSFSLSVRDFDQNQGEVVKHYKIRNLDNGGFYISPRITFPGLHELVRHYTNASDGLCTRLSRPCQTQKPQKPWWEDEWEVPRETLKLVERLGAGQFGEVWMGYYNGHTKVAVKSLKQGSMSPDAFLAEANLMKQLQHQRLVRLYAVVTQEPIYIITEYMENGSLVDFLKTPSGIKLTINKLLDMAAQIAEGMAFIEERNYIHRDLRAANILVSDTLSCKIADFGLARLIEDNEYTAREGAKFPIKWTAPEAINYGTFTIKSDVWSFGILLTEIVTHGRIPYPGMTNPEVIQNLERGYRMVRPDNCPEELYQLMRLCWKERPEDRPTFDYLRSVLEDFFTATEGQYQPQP

| IC50 (LCK; [1]) [nM] | IC50 (ITK; [1]) [nM] | IC50 (EGFR; [1]) [nM] | IC50 (TEC; [1]) [nM] | IC50 (LCK; E compounds, Table 17) [nM] | IC50 (ITK; E compounds, Table 17) [nM] | IC50 (EGFR; E compounds, Table 17) [nM] | IC50 (TEC; E compounds, Table 17) [nM] | Compound |
| --- | --- | --- | --- | --- | --- | --- | --- | --- |
| 100 to 1000 | 100 to 1000 | 1000 to 10000 | 10 to 100 | – | – | – | – | C[C@@H]1[C@H](NC(=O)c2cnn(C(C)(C)C)c2)CCCN1c1cnc(C(N)=O)c(Nc2cnn(C)c2)n1 [Example D-57, 5-[(2R,3R)-3-(1-tert-butyl-1H-pyrazole-4-amido)-2-methylpiperidin-1-yl]-3-[(1-methyl-1H-pyrazol-4-yl)amino]pyrazine-2-carboxamide] |
| > 10000 | > 10000 | > 10000 | 1000 to 10000 | – | – | – | – | Cn1cc(Nc2nc(N3CCC[C@H]4[C@@H]3CCCN4C(=O)c3ccc(C4CC4)cc3)cnc2C(N)=O)cn1 [Example D-47, 5-[(4aS,8aS)-5-(4-cyclopropylbenzoyl)-decahydro-1,5-naphthyridin-1-yl]-3-[(1-methyl-1H-pyrazol-4-yl)amino]pyrazine-2-carboxamide] |
| > 10000 | > 10000 | > 10000 | 10 to 100 | – | – | – | – | C[C@@H]1[C@H](NC(=O)c2ccc(C3CC3)nc2)CCCN1c1cnc(C(N)=O)c(Nc2ccc(OC3CCC(F)(F)CC3)cc2)n1 [Example D-48, 5-[(2R,3R)-3-(6-cyclopropylpyridine-3-amido)-2-methylpiperidin-1-yl]-3-({4-[(4,4-difluorocyclohexyl)oxy]phenyl}amino)pyrazine-2-carboxamide] |
| 10 to 100 | 100 to 1000 | 100 to 1000 | 10 to 100 | – | – | – | – | C[C@@H]1[C@H](NC(=O)c2ccc(C3CC3)cc2)CCCN1c1cnc(C(N)=O)c(Nc2ccc(OC3CCN(C)CC3)cc2)n1 [Example D-89] |
| 1000 to 10000 | 100 to 1000 | > 10000 | 10 to 100 | – | – | – | – | C[C@@H]1[C@H](NC(=O)c2ccc(C3CC3)cc2)CCCN1c1cnc(C(N)=O)c(Nc2cnn(CC3CCC(F)(F)CC3)c2)n1 [Example D-321, 5-[(2R,3R)-3-(4-cyclopropylbenzamido)-2-methylpiperidin-1-yl]-3-({1-[(4,4-difluorocyclohexyl)methyl]-1H-pyrazol-4-yl}amino)pyrazine-2-carboxamide] |
| > 10000 | > 10000 | > 10000 | 1000 to 10000 | – | – | – | – | CN(C)C(=O)N[C@H]1CCCN(c2cnc(C(N)=O)c(Nc3ccc4ncccc4c3)n2)[C@H]1CO (racemic) [Example D-65, cis 5-[3-[(dimethylcarbamoyl)amino]-2-(hydroxymethyl)piperidin-1-yl]-3-[(quinolin-6-yl)amino]pyrazine-2-carboxamide] |
| 100 to 1000 | 100 to 1000 | > 10000 | 10 to 100 | – | – | – | – | C[C@@H]1[C@H](NC(=O)c2ccc(C3CC3)cc2)CCCN1c1cnc(C(N)=O)c(Nc2cnc(N3CCN(C)CC3)nc2)n1 [Example D-318, 5-[(2R,3R)-3-(4-cyclopropylbenzamido)-2-methylpiperidin-1-yl]-3-{[2-(4-methylpiperazin-1-yl)pyrimidin-5-yl]amino}pyrazine-2-carboxamide] |

Second part, the compound before the results:

| Compound | IC50 (LCK; [1]) [nM] | IC50 (ITK; [1]) [nM] | IC50 (EGFR; [1]) [nM] | IC50 (TEC; [1]) [nM] | IC50 (LCK; E compounds, Table 17) [nM] | IC50 (ITK; E compounds, Table 17) [nM] | IC50 (EGFR; E compounds, Table 17) [nM] | IC50 (TEC; E compounds, Table 17) [nM] |
| --- | --- | --- | --- | --- | --- | --- | --- | --- |
| CN1CCN(C(=O)c2ccc(Nc3nc(N[C@H]4CC[C@@H](NC(=O)c5ccc(C6CC6)cc5F)CC4)cnc3C(N)=O)cc2)CC1 [Example D-71, 3-{[4-(4-methylpiperazine-1-carbonyl)phenyl]amino}-5-{[(1 s,4s)-4-(4-cyclopropyl-2-fluorobenzamido)cyclohexyl]amino}pyrazine-2-carboxamide] | 10 to 100 | 1000 to 10000 | 100 to 1000 | 100 to 1000 | – | – | – | – |
| Cc1cc(Nc2nc(N3C[C@@H](NC(=O)N(C)C)CC[C@@H]3C)cnc2C(N)=O)sn1 [Example D-76, 5-[(2S,5S)-5-[(dimethylcarbamoyl)amino]-2-methylpiperidin-1-yl]-3-[(3-methyl-1,2-thiazol-5-yl)amino]pyrazine-2-carboxamide] | > 10000 | > 10000 | 1000 to 10000 | 1000 to 10000 | – | – | – | – |
| C[C@@H]1[C@H](NC(=O)c2ccc(C3CC3)cc2F)CCCN1c1cnc(C(N)=O)c(Nc2ccc(N3CCOCC3)cc2)n1 [Example D-73, 5-[(2R,3R)-3-(4-cyclopropyl-2-fluorobenzamido)-2-methylpiperidin-1-yl]-3-{[4-(morpholin-4-yl)phenyl]amino}pyrazine-2-carboxamide] | 1000 to 10000 | 100 to 1000 | 1000 to 10000 | 10 to 100 | – | – | – | – |
| C=CC(=O)N1CCC[C@@H](Nc2cnc(C(N)=O)c(Nc3ccc(C4CCN(C5CCCC5)CC4)cc3)n2)C1 [Example E-108, (R)-5-(1-acryloylpiperidin-3-ylamino)-3-(4-(1-cyclopentylpiperidin-4-yl)phenylamino)pyrazine-2-carboxamide] | – | – | – | – | 10 to 100 | ≤ 10 | ≤ 10 | ≤ 10 |
| C[C@@H]1[C@H](NC(=O)c2ccc(C(C)(C)N)cc2)CCCN1c1cnc(C(N)=O)c(Nc2cnn(C)c2)n1 [Example D-51, 5-[(2R,3R)-3-[4-(2-aminopropan-2-yl)benzamido]-2-methylpiperidin-1-yl]-3-[(1-methyl-1H-pyrazol-4-yl)amino]pyrazine-2-carboxamide] | 10 to 100 | 10 to 100 | 100 to 1000 | ≤ 10 | – | – | – | – |
| C[C@@H]1[C@H](N2Cc3cc(Br)ccc3C2=O)CCCN1c1cnc(C(N)=O)c(Nc2cnn(C)c2)n1 [Example D-27, 5-[(2R,3R)-3-(5-bromo-1-oxo-2,3-dihydro-1H-isoindol-2-yl)-2-methylpiperidin-1-yl]-3-[(1-methyl-1H-pyrazol-4-yl)amino]pyrazine-2-carboxamide] | 100 to 1000 | 100 to 1000 | 100 to 1000 | ≤ 10 | – | – | – | – |
| Cc1csc(Nc2nc(N3CCC[C@@H](NC(=O)c4ccc(C5CC5)cc4F)[C@H]3C)cnc2C(N)=O)n1 [Example D-63, 5-[(2R,3R)-3-(4-cyclopropyl-2-fluorobenzamido)-2-methylpiperidin-1-yl]-3-[(4-methyl-1,3-thiazol-2-yl)amino]pyrazine-2-carboxamide] | > 10000 | > 10000 | > 10000 | > 10000 | – | – | – | – |
| C[C@@H]1[C@H](NC(=O)c2ccc(C(C)(C)C#N)cc2)CCCN1c1cnc(C(N)=O)c(Nc2cnn(C)c2)n1 [Example D-88, 5-[(2R,3R)-3-[4-(1-cyano-1-methylethyl)benzamido]-2-methylpiperidin-1-yl]-3-[(1-methyl-1H-pyrazol-4-yl)amino]pyrazine-2-carboxamide] | 100 to 1000 | 100 to 1000 | 1000 to 10000 | 10 to 100 | – | – | – | – |
| C[C@@H]1[C@H](NC(=O)c2ccc(C3CC3)cc2F)CCCN1c1cnc(C(N)=O)c(Nc2cnn(C)c2)n1 [Example D-1, 5-[(2R,3R)-3-(4-cyclopropyl-2-fluorobenzamido)-2-methylpiperidin-1-yl]-3-[(1-methyl-1H-pyrazol-4-yl)amino]pyrazine-2-carboxamide] | 1000 to 10000 | 100 to 1000 | 1000 to 10000 | 10 to 100 | – | – | – | – |
| Cc1cc(Nc2nc(N3CCC[C@@H](NC(=O)c4ccc(C5CC5)cc4F)C3)cnc2C(N)=O)on1 [Example D-2, 5-[(3R)-3-(4-cyclopropyl-2-fluorobenzamido)piperidin-1-yl]-3-[(3-methyl-1,2-oxazol-5-yl)amino]pyrazine-2-carboxamide] | > 10000 | > 10000 | > 10000 | 1000 to 10000 | – | – | – | – |
